Earlier results as cited in patent US7183291B2 (Council of Scientific and Industrial Research, priority 1999, dated 2007).

Columns and labels:
[1] = tested on: P. cynomolgi B. infection; settings: 3.16 mg/kg×3 doses; monkeys; cited from earlier work
[2] = tested on: P. cynomolgi B. infection; settings: 1 mg/kg×7 days; cited from earlier work
[3] = tested on: rodent malaria; settings: in vivo; cited from earlier work
[4] = tested on: rodent malaria; settings: in vivo; cited from earlier work; remark: listed apart in the source
[5] = tested on: erythrocytes; settings: cited from earlier work
[6] = tested on: rodent malaria; settings: in vivo; cited from earlier work; remark: listed apart in the source
[7] = tested on: rodent malaria; settings: given directly to the insect; cited from earlier work

| Compound | blood schizontocidal activity [3] | gametocytocidal activity [4] | further results |
| --- | --- | --- | --- |
| COc1cc(NC(C)CCCNC2=C(C(C)=O)CCO2)c2ncccc2c1 (stereo not drawn) [N^1-(3-acetyl-4,5-dihydro-2-furanyl)-N^4-(6-methoxy-8-quinolinyl)-1,4-pentanediamine] |  |  | causal prophylactic activity [1]: causal prophylactic activity; anti-relapse (radical curative) activity [2]: exerts anti-relapse (radical curative) activity |
| COc1cc(NC(C)CCCN)c2ncccc2c1O (stereo not drawn) [formula (3), 5-hydroxy-6-methoxy-8-(4-amino-1-methylbutylamino) quinoline] | highly active | inactive | oxidation of oxyhemoglobin (HbO2) to methemoglobin (Met Hb) and of reduced glutathione (GSH) [5]: cause oxidation |
| COC1(O)C=C(NC(C)CCCN)c2ncccc2C1O (stereo not drawn) [formula (4), 5,6-dihydroxy-6-methoxy-8-(4-amino-1-methylbutylamino) quinoline] | highly active | only a slight gametocytocidal activity |  |
| COc1cc(NC(C)CCC(=O)O)c2ncccc2c1 (stereo not drawn) [formula (12), 8-(3-carboxy-1-methylpropylamino)-6-methoxy quinoline] |  | inactive | methemoglobin formation in vitro ([5]; in vitro): does not cause methemoglobin formation |
| Nc1cc(O)c(O)c2cccnc12 [formula (11), 5,6-dihydroxy-8-aminoquinoline] | no significant activity |  | tissue schizontoidal effect relative to primaquine [6]: two to three times more active than primaquine; direct sporontocidal activity [7]: directly sporontocidal; oxidation of oxyhemoglobin (HbO2) to methemoglobin (Met Hb) and of reduced glutathione (GSH) [5]: cause oxidation |
| Desmethyl primaquine [formula (5)] | little | inactive |  |
| COc1cc(N)c2ncccc2c1 [formula (10), 6-methoxy-8-aminoquinoline] | no significant activity |  | tissue schizontoidal effect relative to primaquine [6]: two to three times more active than primaquine; direct sporontocidal activity [7]: directly sporontocidal |
